This is an account of results in PMC4977651, “Molecular features of biguanides required for targeting of mitochondrial respiratory complex I and activation of AMP-kinase” (BMC Biology, 2016).

For assay [1], the target named is isolated bovine heart complex I (Bos taurus, UniProt P03887+P03898+P17694+P42026). The assay can be described thus: NADH:decylubiquinone oxidoreduction by isolated complex I. Type of assay: biochemical. The conditions noted are these: for HillSlope (best fit value) / LogIC50 (best fit value): Prism fit; for HillSlope (best fit value): no std. error; for remaining activity at 50 µM: inhibitor 0.05 mM; for remaining activity at 100 µM: inhibitor 0.10 mM; for remaining activity at 500 µM: inhibitor 0.50 mM; for remaining activity at 1000 µM: inhibitor 1.00 mM; for remaining activity at 5000 µM: inhibitor 5.00 mM; for LogIC50 (best fit value): log of IC50 in mM; for remaining activity at 200 µM: inhibitor 0.20 mM; for remaining activity at 2000 µM: inhibitor 2.00 mM. The method, then:
Complex I and mitochondrial membranes were prepared from Bos taurus (bovine) heart. Intact mitochondria were isolated from rat liver and mouse heart and liver. Membranes were prepared from mouse heart mitochondria by 5 s bursts of sonication at 4 °C and collected by centrifugation (75,000 × g, 1 h).
Assays were performed at 32 °C in a SpectraMax 96-well plate reader. NADH:decylubiquinone oxidoreduction by complex I at 0.5 μg mL^−1 was measured in 20 mM Tris-HCl (pH 7.2), 0.15 % soy bean asolectin (Avanti Polar Lipids), and 0.15 % 3-((3-cholamidopropyl)dimethylammonium)-1-propanesulfonate (CHAPS, Merck Chemicals Ltd), with 200 μM decylubiquinone and 200 μM NADH, and monitored using ε340–380(NADH) = 4.81 mM^−1 cm^−1 [23]. Catalysis was initiated by addition of NADH and maximal rates determined by linear regression. NADH:O2 oxidoreduction by membranes was measured similarly but using 5 μg mL^−1 membranes in 10 mM Tris-HCl (pH 7.4) and 250 mM sucrose using 200 μM NADH and supplemented with 0.15 mM horse heart cytochrome c (Sigma-Aldrich Ltd.). Succinate:O2 oxidoreduction was measured using 40 μg mL^−1 membranes in 5 mM succinate in 10 mM Tris-HCl (pH 7.4) as described previously. Control experiments included NaCl (to match the ionic strength) or DMSO, as appropriate.
Experimental values are reported as mean averages ± standard deviation (SD) of technical replicates for large sample sizes and mean averages ± standard error of the mean (SEM) of technical replicates for small sample sizes. Data were analyzed by the unpaired two-tailed Student’s t test. IC50 values were determined using the standard dose-effect relationship (activity (%) = 100 × IC50 / (IC50 + [inhibitor]^m) with the Hill Slope (m) set to unity for purified complex I) and are reported with 95 % confidence intervals.

Assay [2] concerns 143B cells. The assay is described as follows: Membrane potential measurement by TMRM fluorescence. Type of assay: cell-based, human. The method, then:
143B cells were seeded at 5 × 10^5 cells per 10 cm^2 well in DMEM containing 10 % FBS. […] The detached cells from each well were incubated in PBS containing 25 pg/mL tetramethylrhodamine, methyl ester (TMRM) and 20 μg/mL Hoescht stain for 20 min at 37 °C then washed twice and re-suspended in 200 μL PBS. TMRM fluorescence was detected using a NucleoCounter® NC 3000 cytometer with excitation at 530 nm and emission at 575 nm, with the Hoescht stain used to check for consistent cell density between samples.

Where [3] appears, read: bovine heart purified mitochondrial complex I.
[4] abbreviates: bovine heart purified mitochondrial complex I, Prism log(inhibitor) vs. response fit, Bottom 0, Top 100, read-out: IC50 (best fit value).
[5] abbreviates: bovine heart purified mitochondrial complex I, read-out: average % (rate, % of no-inhibitor control).

The structures appear in SMILES notation. Values joined by “and” are separate entries in the source; they are usually repeats but may differ in a detail not shown here. Equal entries are not always repeated. Where two headings read alike, the source gives them in different places.

Chain of isolated bovine heart complex I (P42026 38-216): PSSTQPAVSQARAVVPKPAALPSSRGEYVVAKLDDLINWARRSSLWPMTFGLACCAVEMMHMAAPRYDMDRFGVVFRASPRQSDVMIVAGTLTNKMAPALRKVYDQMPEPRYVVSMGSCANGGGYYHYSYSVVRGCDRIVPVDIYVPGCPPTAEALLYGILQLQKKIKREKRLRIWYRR
Chain of isolated bovine heart complex I (P17694 34-463): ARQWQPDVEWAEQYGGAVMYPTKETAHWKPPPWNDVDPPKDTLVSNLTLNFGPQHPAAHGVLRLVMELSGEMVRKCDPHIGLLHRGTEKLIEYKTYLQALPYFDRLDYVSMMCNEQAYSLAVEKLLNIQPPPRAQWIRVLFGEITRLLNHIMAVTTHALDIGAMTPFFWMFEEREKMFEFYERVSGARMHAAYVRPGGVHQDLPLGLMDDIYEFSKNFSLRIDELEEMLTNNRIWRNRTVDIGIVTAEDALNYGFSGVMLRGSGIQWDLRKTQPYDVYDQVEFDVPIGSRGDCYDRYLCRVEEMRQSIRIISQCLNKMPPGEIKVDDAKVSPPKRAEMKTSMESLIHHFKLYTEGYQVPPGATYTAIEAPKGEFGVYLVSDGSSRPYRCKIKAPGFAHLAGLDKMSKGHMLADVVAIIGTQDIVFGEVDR
Chain of isolated bovine heart complex I (P03898 whole entry): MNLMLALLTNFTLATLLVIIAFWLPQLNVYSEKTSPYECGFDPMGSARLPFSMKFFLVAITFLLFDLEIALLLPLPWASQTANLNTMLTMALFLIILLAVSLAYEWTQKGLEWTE
Chain of isolated bovine heart complex I (P03887 whole entry): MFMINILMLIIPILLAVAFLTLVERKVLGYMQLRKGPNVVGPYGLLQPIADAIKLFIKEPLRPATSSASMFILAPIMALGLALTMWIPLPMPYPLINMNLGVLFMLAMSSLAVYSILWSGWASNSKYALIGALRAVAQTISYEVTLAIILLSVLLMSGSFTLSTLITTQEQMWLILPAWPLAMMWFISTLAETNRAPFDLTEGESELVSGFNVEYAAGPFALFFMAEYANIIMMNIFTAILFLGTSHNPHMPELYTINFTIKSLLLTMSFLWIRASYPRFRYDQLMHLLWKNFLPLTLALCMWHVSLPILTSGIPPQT

Take `NC(N)=NC(N)=NCCc1ccc(Cl)cc1` [compound 1, 2-[2-(4-chlorophenyl)ethyl]-1-(diaminomethylidene)guanidine]: in assay [1] (setting [3]), the “HillSlope (best fit value)” value worked out at 1 and the “LogIC50 (best fit value)” value is -0.7098. In assay [1] (setting [4]), the IC50 came out at 195 µM. In addition, in assay [1] (setting [5]), the remaining activity at 50 µM was found to be 78.7%, the remaining activity at 100 µM amounted to 67.7%, the remaining activity at 500 µM worked out at 28.6% and the remaining activity at 1000 µM came out at 15.1%. Moreover, the remaining activity at 5000 µM in assay [1] (setting [5]) came to 1.32%. Also, the remaining activity at 250 µM in assay [1] (bovine heart purified mitochondrial complex I, inhibitor 0.25 mM, read-out: average % (rate, % of no-inhibitor control)) worked out at 44.8%. Moreover, in assay [1] (bovine heart purified mitochondrial complex I, inhibitor 2.50 mM, read-out: average % (rate, % of no-inhibitor control)), the remaining activity at 2500 µM worked out at 2.59%.
Take `N=C(N)NC(N)=Nc1ccccc1` [compound 2, phenyl biguanide]: the IC50 in assay [1] was determined as 458 µM. Besides, in assay [1] (setting [3]), the “HillSlope (best fit value)” value is listed as 1 and the “LogIC50 (best fit value)” value is -0.3388.
`NC(N)=NC(N)=NCc1ccccc1` [compound 3, 2-benzyl-1-(diaminomethylidene)guanidine]: in assay [1] (setting [3]), the “HillSlope (best fit value)” value was found to be 1 and the “LogIC50 (best fit value)” value is on record as -0.2463. In addition, in assay [1] (setting [4]), the IC50 is 567 µM. For the same compound, in assay [1] (setting [5]), the remaining activity at 100 µM turned out to be 80%, the remaining activity at 200 µM was found to be 65.6%, the remaining activity at 500 µM came out at 52.1% and the remaining activity at 1000 µM worked out at 41%. In assay [1] (setting [5]), the remaining activity at 2000 µM was 27.6% and the remaining activity at 5000 µM was 15.6%. For the same compound, the remaining activity at 10000 µM in assay [1] (bovine heart purified mitochondrial complex I, inhibitor 10.00 mM, read-out: average % (rate, % of no-inhibitor control)) was 4.7%.
In the case of `CC(C)N=C(N)N=C(N)N` [compound 4, 1-(diaminomethylidene)-2-(propan-2-yl)guanidine], in assay [1] (setting [3]), the “HillSlope (best fit value)” value is on record as 1 and the “LogIC50 (best fit value)” value is on record as 0.8297. The IC50 in assay [1] (setting [4]) stood at 6760 µM. Besides, the remaining activity at 620 µM in assay [1] (bovine heart purified mitochondrial complex I, inhibitor 0.62 mM, read-out: average % (rate, % of no-inhibitor control)) came to 88.4%. Moreover, the remaining activity at 1560 µM in assay [1] (bovine heart purified mitochondrial complex I, inhibitor 1.56 mM, read-out: average % (rate, % of no-inhibitor control)) was found to be 84.5%. In addition, the remaining activity at 3000 µM in assay [1] (bovine heart purified mitochondrial complex I, inhibitor 3.00 mM, read-out: average % (rate, % of no-inhibitor control)) is 70.3%. For the same compound, the remaining activity at 5800 µM in assay [1] (bovine heart purified mitochondrial complex I, inhibitor 5.80 mM, read-out: average % (rate, % of no-inhibitor control)) is 54.5%. Further, in assay [1] (bovine heart purified mitochondrial complex I, inhibitor 15.62 mM, read-out: average % (rate, % of no-inhibitor control)), the remaining activity at 15620 µM came out at 30.1%. In assay [1] (bovine heart purified mitochondrial complex I, inhibitor 31.25 mM, read-out: average % (rate, % of no-inhibitor control)), the remaining activity at 31250 µM was 16.1%. Besides, in assay [1] (bovine heart purified mitochondrial complex I, inhibitor 62.50 mM, read-out: average % (rate, % of no-inhibitor control)), the remaining activity at 62500 µM was 5.52%.
In the case of `CC(C)N=C(N)N=C(N)NC(C)C` [compound 5, N-(propan-2-yl)-1-3-(propan-2-yl)carbamimidamidomethanimidamide], in assay [1] (setting [3]), the “HillSlope (best fit value)” value turned out to be 1 and the “LogIC50 (best fit value)” value was -0.609. Further, the IC50 in assay [1] (setting [4]) was 246 µM. Besides, in assay [1] (setting [5]), the remaining activity at 50 µM was determined as 79.4%, the remaining activity at 100 µM worked out at 70.7%, the remaining activity at 200 µM is 55.4% and the remaining activity at 1000 µM was found to be 20.8%. The remaining activity at 2000 µM in assay [1] (setting [5]) is 12.9%. The remaining activity at 400 µM in assay [1] (bovine heart purified mitochondrial complex I, inhibitor 0.40 mM, read-out: average % (rate, % of no-inhibitor control)) is 37.9%. For the same compound, the remaining activity at 4000 µM in assay [1] (bovine heart purified mitochondrial complex I, inhibitor 4.00 mM, read-out: average % (rate, % of no-inhibitor control)) worked out at 9.93%.
Turning to `[H]/N=C(/N)N/C(=N/[H])NCCc1ccccc1` [phenformin, reference compound], in assay [2] (after 6.5 h, phenformin at IC50/10 (34 μM), FCCP at 1 μM, n = 3), the “TMRM fluorescence, % of the control value” was 22.4 ± 2.9%. Further, in assay [2] (individual replicates, phenformin 6.5 hours), the “mean-y (TMRM)” value was 3427.6 and 3669.9 and 3614.5. Moreover, in assay [2] (n 3, phenformin 6.5 hours), the TMRM average is listed as 3570.67 and the “TMRM average, % control” value is 22.44 % control.

For orientation: IC50 means the concentration that inhibits the measured activity by half.
